From patent US10865387B2, “Methods of obtaining pancreatic endocrine cells” (The University Court of the University of Aberdeen, priority 2014, dated 2020)

How the values were obtained:
[1] = tested on: human exocrine enriched fraction (EEF); test: RT-qPCR of hormone and transcription factor mRNA in reprogrammed exocrine cells; assay type: cell-based
Experimental: After 48 h the cells were incubated for another 72 h in serum free medium (SFM) prepared with RPMI 1640, insulin-transferrin-selenium (Gibco) and 1% bovine serum albumin (Sigma), supplemented with 10 μM SB431542, 2 μM Y27632, 1 μM 5-Aza-2′deoxycytidine and 10 mM sodium butyrate (all from Sigma). On the next day the cells were incubated for 4 h with the adenoviruses encoding pancreatic transcription factors. On the following day the medium was changed for SFM supplemented with 1 nM betacellulin (R&D systems, Abingdon, UK), 10 nM exendin-4 and 10 mM nicotinamide (both from Sigma). The medium was changed every two days for another 6 days before harvesting.
Recombinant adenoviruses encoding the mouse sequences of PDX1, MAFA, NGN3 and PAX4 (Swales et al., 2012) were prepared using the Ad-Easy™ system (Agilent Technologies, Edinburgh, UK). The adenoviruses containing PDX1 and NGN3 also expressed GFP through a downstream CMV promoter. Viral transduction was performed in SFM for 4 h at a multiplicity of infection (MOI) of 100 for each virus.
QRT/PCR was performed as previously described (Lima et al., 2012. Data were analysed using the 2^−ΔΔCT method. Statistical analysis was performed using PRISM software and the student's t-test or one-way ANOVA followed by the Dunnet's post-hoc test, as appropriate. The list of TaqMan probes are listed in Table 1:
Knockdown of Arx in transdifferentiating cells was performed by transfection with a pool of specific targeting small inhibitory RNAs, or scrambled controls (Dharmacon, Loughborough, UK). 100 nM siRNA was transfected on day 6 of the transdifferentiation protocol using Dharmafect 1 (Dharmacon), according to the manufacturer's instructions.
EEF cells were plated directly from the low purity fractions obtained following islet isolation. EEF cells were cultured as a monolayer for two days and then treated with SB, Y2, Aza and NaBu for 3 days. […]

[2] = tested on: human exocrine enriched fraction (EEF); test: Insulin, C-peptide and glucagon content of cell lysates by ELISA; assay type: cell-based; settings: reprogrammed (siARX) cells with ZnCl2 10 μM; FIG. 15
Description: FIG. 10. ARX inhibition enhances beta cell maturation and decreases alpha cell differentiation. (A) C-peptide release by untreated (N/A), transdifferentiated cells in the absence of siARX (REP), siARX transdifferentiated cells (siARX) and in the absence of PAX4 (siARX-PAX4). C-peptide was detected from the culture medium by a specific human C-peptide ELISA. Data are representative of triplicate experiments. (B) Insulin, C-peptide and Proinsulin content of untreated, transdifferentiated cells in the absence of siARX (REP), siARX transdifferentiated cells (siARX) and human islets. The content of each peptide was detected by specific human ELISAs after cell lysis and normalised to the total protein content. Data are representative of triplicate experiments. (C) Glucagon content of untreated, transdifferentiated cells in the absence of siARX (REP), siARX transdifferentiated cells (siARX) and human islets. Glucagon was detected by a specific human ELISA after cell lysis and normalised to the total protein content. Data are representative of triplicate experiments. […]
[…] were measured using a human glucagon Quantikine ELISA kit (R&D Systems, Abingdon, UK), a human C-peptide ELISA kit (Millipore, Livingston, UK), a human prosinsulin ELISA kit or a human insulin ELISA kit (both from Mercodia, Uppsala, Sweden). […]

[3] = cells reprogrammed (siARX) with ZnCl2 10 μM, FIG. 14

Compound | efficiency of reprogramming (relative expression of insulin) on extracellular matrix ([1]; PDX1/MAFA/NGN3/PAX4 protocol, compared with fibronectin, poly-lysine, collagen type I and IV, FIG. 4) | insulin gene expression [1, 3] | mRNA encoding PAX4 [1, 3] | insulin (C-peptide) protein content [2]
laminin | improves the efficiency of reprogramming | – | – | –
[Cl-].[Cl-].[Zn+2] [ZnCl2] | – | significant effect | increased levels | stimulatory effect
